Source: patent publication US7109193B2, “Tricyclic diazepines tocolytic oxytocin receptor antagonists” (Wyeth, priority 2001, dated 2006)

The compounds below were run against T1, human vasopressin V1a receptor subtype (Homo sapiens, UniProt P37288) (assay: Vasopressin binding in Chinese Hamster Ovary cell membranes expressing human vasopressin V1a subtype receptors). Conditions: 100 nM, CHO cell membranes, [3H]Manning ligand, values without parentheses.
T1 construct: host or cells: CHO cells (pZeoSV vector for the Thibonnier line)
T1 sequence (P37288 whole entry): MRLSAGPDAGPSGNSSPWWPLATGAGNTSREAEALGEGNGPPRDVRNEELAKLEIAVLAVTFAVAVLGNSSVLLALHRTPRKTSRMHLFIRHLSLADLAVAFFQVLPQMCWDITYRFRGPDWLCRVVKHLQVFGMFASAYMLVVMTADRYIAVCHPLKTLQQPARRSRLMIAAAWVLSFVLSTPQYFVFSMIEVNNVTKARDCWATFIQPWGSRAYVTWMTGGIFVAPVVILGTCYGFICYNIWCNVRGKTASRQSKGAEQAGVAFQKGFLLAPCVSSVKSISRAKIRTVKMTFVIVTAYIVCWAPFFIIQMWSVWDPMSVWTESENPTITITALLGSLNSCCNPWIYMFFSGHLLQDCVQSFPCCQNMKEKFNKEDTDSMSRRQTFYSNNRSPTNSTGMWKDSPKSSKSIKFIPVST
Outline: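 Displacement of [3H]Manning ligand (8 nM working solution) from human V1a receptors in CHO cell membranes, 25–50 μg protein per well. Incubation ran 60 min at room temperature in 50 mM Tris-HCl pH 7.4 with protease inhibitors, followed by filtration and scintillation counting. Results are given as IC50 or percent inhibition.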
With `COc1cc(C(=O)N2Cc3ccc(C(=O)N4CC[C@@H](N(C)C)C4)n3Cc3ccccc32)ccc1-c1ccccc1C` [Example 281, [(3R)-3-(Dimethylamino)pyrrolidinyl]{10-[(2-methoxy-2′-methyl[1,1′-biphenyl]-4-yl)carbonyl]-10,11-dihydro-5H-pyrrolo[2,1-c][1,4]benzodiazepin-3-yl}methanone] the “V1a % inhibition @ 100 nM” value was 58%. `COc1ccccc1-c1ccc(C(=O)N2Cc3ccc(C(=O)N4CC[C@@H](N(C)C)C4)n3Cc3ccccc32)cc1OC` [Example 282, {10-[(2,2′-Dimethoxy[1,1′-biphenyl]-4-yl)carbonyl]-10,11-dihydro-5H-pyrrolo[2,1-c][1,4]benzodiazepin-3-yl][(3R)-3-(dimethylamino)pyrrolidinyl]methanone] was tested, and the “V1a % inhibition @ 100 nM” value was 1%. `COc1cccc(-c2ccc(C(=O)N3Cc4ccc(C(=O)N5CC[C@@H](N(C)C)C5)n4Cc4ccccc43)cc2OC)c1` [Example 283, {10-[(2,3′-Dimethoxy[1,1′-biphenyl]-4-yl)carbonyl]-10,11-dihydro-5H-pyrrolo[2,1-c][1,4]benzodiazepin-3-yl}[(3R)-3-(dimethylamino)pyrrolidinyl]methanone] was tested, and the “V1a % inhibition @ 100 nM” value was 40%. With `COc1cc(C(=O)N2Cc3ccc(C(=O)N(C)CCCN(C)C)n3Cc3ccccc32)ccc1-n1c(C)ccc1C` [Example 310, N-[3-(Dimethylamino)propyl]-10-[4-(2,5-dimethyl-i H-pyrrol-1-yl)-3-methoxybenzoyl]-N-methyl-10,11-dihydro-5H-pyrrolo[2,1-c][1,4]benzodiazepine-3-carboxamide] the “V1a % inhibition @ 100 nM” value was 4%. `COc1cc(C(=O)N2Cc3ccc(C(=O)N4CCC[C@H]4CN4CCCC4)n3Cc3ccccc32)ccc1-n1c(C)ccc1C` [Example 321, {10-[4-(2,5-Dimethyl-1H-pyrrol-1-yl)-3-methoxybenzoyl]-10,11-dihydro-5H-pyrrolo[2,1-c][1,4]benzodiazepin-3-yl}[(2S)-2-(1-pyrrolidinylmethyl)pyrrolidinyl]methanone] was tested, and the “V1a % inhibition @ 100 nM” value was 5%. In the case of `COc1cc(C(=O)N2Cc3ccc(C(=O)N4CC[C@@H](N(C)C)C4)n3Cc3ccccc32)ccc1-n1c(C)ccc1C` [Example 322, [(3R)-3-(Dimethylamino)pyrrolidinyl]{10-[4-(2,5-dimethyl-1H-pyrrol-1-yl)-3-methoxybenzoyl]-10,11-dihydro-5H-pyrrolo[2,1-c][1,4]benzodiazepin-3-yl}methanone], the “V1a % inhibition @ 100 nM” value is reported as 12%. In the case of “{10-[(2,2′-Dimethoxy[1,1′-biphenyl]-4-yl)carbonyl]-10,11-dihydro-5H-pyrrolo[2,1-c][1,4]benzodiazepin-3-yl}(4-isopropyl-1-piperazinyl)methanone [Example 244]”, the “V1a % inhibition @ 100 nM” value is reported as 44%.
